The values that follow come from paper PMC6151508, “Development of Novel Nrf2/ARE Inducers Bearing Pyrazino[2,1-a]isoquinolin Scaffold with Potent In Vitro Efficacy and Enhanced Physicochemical Properties” (Molecules : A Journal of Synthetic Chemistry and Natural …, 2017).

Values after ≈ are worked out from the molar mass of the structure shown. A value given as a limit tells only on which side of the number the result lay.

Data set [1] can be described thus: Parallel artificial membrane permeability assay (PAMPA by pION). The settings on record: pH 7.4. A general note: The PAMPA barrier holds no transporters, so it reflects passive diffusion.
Description: Then we evaluated the physicochemical properties of a selected series of our compounds. […] All of them were evaluated with pKa, partition coefficient (log D, pH 7.4), membrane permeability (Pe, pH 7.4) and water solubility. […] Permeability (Pe) was determined by a standard parallel artificial membrane permeability assay (PAMPA by pION).
Permeability (Pe) was determined by a standard parallel artificial membrane permeability assay (PAMPA by pION).
A short description of data set [2]: log D pH 7.4 by potentiometric titration (Gemini Profiler, pION). The class given is physicochemical. The source says:
(§1) Ketoprofen and propranolol were chosen as a control.
(§2) This is a new potentiometric acid−base titration method.

Data set [3] is described as follows: Water solubility by pH-metric method (pSOL model 3). The class given is physicochemical. The settings on record: water, pH 7.4, aqueous buffer, thermodynamic from solid.
Text: as §2

Data set [4] is described as follows: MTT cell viability (cytotoxicity) assay. The class given is cell-based. The settings on record: human, HCT116 cells. Here is the method:
(§3) All the derivatives were evaluated for their ability to induce ARE in HepG2-ARE-C8 cell (HepG2 cells stably transfected with a luciferase reporter) by ARE luciferase reporter assay, and they were compared to the lead compound 2. At the same time, cytotoxicity studies were performed by the MTT assay against the HCT116 cells. The results of cytotoxic activity in vitro were expressed as the IC50 [18]. Because those compounds were designed for chemoprevention, they should not be cytotoxic.
Cell viabilities were determined by using 3-[4,5-dimethylthiazol-2-yl]-2,5-diphenyltetrazolium bromide (MTT) assay. MTT was dissolved in (phosphate buffered solution) PBS to a concentration of 5 mg/mL. HCT116 cells (8 × 10^3 cells/well) were plated in 96-well plates and incubated overnight. Different concentrations of test compounds were added to each cell for 24 h at 37 °C, and the 20 μL MTT solution was added and incubated for an additional 4 h. Then, 100 μL of DMSO was added to dissolve formazan precipitate after the solution was removed. The OD value was determined at 570 nm by Elx800 absorbance microplate reader (BioTek, Winooski, VT, USA). IC50 value (concentration at which cell survival equals 50% of control) = […].

Data set [5] has as its system antioxidant response element (ARE). As to the kind of experiment: ARE luciferase reporter assay in HepG2-ARE-C8 cells. The class given is cell-based. The settings on record: HepG2-ARE-C8, 12 h of treatment, mean ± SD n = 3; for fold induction at 0.1 µM / fold induction at 1 µM / fold induction at 5 µM / fold induction at 10 µM / fold induction at 50 µM / fold induction at 100 µM: read-out: ARE Inductivity in Luciferase Reporter Assay (induction fold). The method, then:
as §3
HepG2-ARE-C8 cells (4 × 10^4 cells/well) were incubated overnight in 96-well plates, and then treated with different concentrations of test compounds. tBHQ was used as a positive control, DMSO was used as a negative control, and the luciferase cell culture lysis reagent was used as a blank. The medium was removed after 12 h treatment. Then, the cells were harvested in the luciferase cell culture lysis reagent together with 100 μL of cold PBS. Then, centrifuging the solution and 20 μL of the supernatant was used for determining the luciferase activity. The luciferase activity was measured by a Luminoskan Ascent (Thermo Scientific, Waltham, MA, USA). The data were obtained in triplicate and expressed as fold induction over the control. Induction fold = (RLUtest − RLUblank)/(RLUDMSOcontrol − RLUblank). RLU = relative light unit l.

Data set [6] in a line: pKa by potentiometric titration (Gemini Profiler, pION). Format: physicochemical.
Text: as §1, §2

As a reminder, the Papp is a coefficient for how fast a substance crosses the barrier. As a reminder, the logD is the decadic logarithm of the distribution of all forms, ionised or not, between an organic phase and buffer at a given pH. A word on the solubility: it is the dissolved amount per volume that the medium holds. High values mean much dissolved substance, low ones little dissolved substance. A word on the melting point: it is the temperature, or range, at which the solid turns liquid. What is called IC50 is the concentration at which inhibition is half-maximal. A low value points to higher potency. For orientation: pKa means the pH at which an ionisable group is half protonated. Read a high pKa as a weaker acid or stronger base. On to `O=C(C=C1NCC2c3ccccc3CCN2C1=O)c1cccc(NC(=O)N2CCOCC2)c1` (stereo not shown) [Compound 1e, N-(3-(2-(4-oxo-1,6,7,11b-tetrahydro-2H-pyrazino[2,1-a]isoquinolin-3(4H)-ylidene)acetyl)phenyl)morpholine-4-carboxamide], for which the melting point is 228 to 230 °C. The Papp in data set [1] amounted to 53 ± 7.29 ×10⁻⁶ cm/s. Besides, the logD in data set [2] is 0.61. In addition, in data set [3], the solubility is 46 µg/mL (≈ 103 µM). Moreover, the 50% inhibitory concentration (IC50) at 24 h in data set [4] was 183 µM. Further, in data set [5], the fold induction at 0.1 µM stood at 1.57 ± 0.05, the fold induction at 1 µM is 1.97 ± 0.2, the fold induction at 5 µM stood at 4.53 ± 0.28 and the fold induction at 50 µM is 7.8 ± 3.94. Also, the fold induction at 100 µM in data set [5] was determined as 35 ± 3.15. Also, the fold induction at 10 µM in data set [5] (10 μM) is 5.48 ± 0.13. Also, the pKa in data set [6] was 2.9.
Turning to `O=C(C=C1NCC2c3ccccc3CCN2C1=O)C1CCC1` (stereo not shown) [Compound 2c, 3-(2-cyclobutyl-2-oxoethylidene)-1,2,3,6,7,11b-hexahydro-4H-pyrazino[2,1-a]isoquinolin-4-one], the melting point fell in the range of 172 to 174 °C. The same compound came in with a Papp in data set [1] of 44 ± 5.42 ×10⁻⁶ cm/s. Besides, the log distribution coefficient (logD) in data set [2] came to 1.22. For the same compound, in data set [3], the solubility stood at 170 µg/mL (≈ 574 µM). In addition, inhibition in data set [4] was half-maximal at 190 µM (IC50 at 24 h). Further, in data set [5], the fold induction at 0.1 µM stood at 2.96 ± 0.48, the fold induction at 1 µM was 3.04 ± 0.08, the fold induction at 5 µM was determined as 5.73 ± 1.44 and the fold induction at 50 µM stood at 28 ± 1.39. In addition, the fold induction at 100 µM in data set [5] was found to be 29 ± 2.45. Also, in data set [5] (10 μM), the fold induction at 10 µM is 13.3 ± 0.44. The same compound had a pKa in data set [6] of 3.02.
`O=C(C=C1NCC2CCCCN2C1=O)c1ccccc1` (stereo not shown) [Compound 3a, 3-(2-oxo-2-phenylethylidene)octahydro-4H-pyrido[1,2-a]pyrazin-4-one] yielded a melting point of 164 to 166 °C. For the same compound, the Papp in data set [1] turned out to be 66.4 ± 5.08 ×10⁻⁶ cm/s. In data set [2], the logD amounted to 0.98. Besides, in data set [3], the concentration in solution (solubility) came to 530 µg/mL (≈ 1960 µM). Besides, the IC50 at 24 h in data set [4] is over 300 µM. In addition, in data set [5], the fold induction at 0.1 µM was 1.2 ± 0.49, the fold induction at 1 µM is 4.09 ± 0.79, the fold induction at 5 µM was found to be 15.8 ± 2.08 and the fold induction at 50 µM stood at 29.9 ± 8.49. Further, in data set [5], the fold induction at 100 µM worked out at 40.6 ± 1.78. Also, in data set [5] (10 μM), the fold induction at 10 µM is 16.4 ± 0.55. Moreover, the pKa in data set [6] was 3.42.
`O=C(C=C1NCC2CCCCN2C1=O)c1cccc(F)c1` (stereo not shown) [Compound 3b, 3-(2-(3-fluorophenyl)-2-oxoethylidene)octahydro-4H-pyrido[1,2-a]pyrazin-4-one]: the melting point is 156 to 158 °C. In addition, in data set [1], the apparent permeability (Papp) worked out at 54.5 ± 6 ×10⁻⁶ cm/s. The same compound displayed a logD in data set [2] of 1.23. In addition, the solubility in data set [3] stood at 290 µg/mL (≈ 1010 µM). Besides, the IC50 at 24 h in data set [4] amounted to 168 µM. Also, in data set [5], the fold induction at 0.1 µM stood at 0.7 ± 0.35, the fold induction at 1 µM was 5.98 ± 2.31, the fold induction at 5 µM was 24.8 ± 2.67 and the fold induction at 50 µM came to 40 ± 0.69. Also, the fold induction at 100 µM in data set [5] was 4.41 ± 2.89. Besides, in data set [5] (10 μM), the “ARE Inductivity in Luciferase Reporter Assay (induction fold)” value came out at 32.97 ± 3.68 fold and the fold induction at 10 µM was found to be 33. The same compound showed a pKa in data set [6] of 3.1.
With `O=C(C=C1NCC2CCCCN2C1=O)c1cccc([N+](=O)[O-])c1` (stereo not shown) [Compound 3d, 3-(2-(3-nitrophenyl)-2-oxoethylidene)octahydro-4H-pyrido[1,2-a]pyrazin-4-one], the melting point was in the range of 174 to 176 °C. Half-maximal inhibition in data set [4] (IC50 at 24 h) was put at 181 µM. Further, in data set [5], the fold induction at 0.1 µM was 1.96 ± 0.88, the fold induction at 1 µM amounted to 3.85 ± 1, the fold induction at 5 µM amounted to 12 ± 2.55 and the fold induction at 50 µM worked out at 47.6 ± 3.54. Also, the fold induction at 100 µM in data set [5] was 8.66 ± 3.27. In data set [5] (10 μM), the fold induction at 10 µM is 19.5 ± 3.09.
Turning to `COc1cccc(C(=O)C=C2NCC3CCCCN3C2=O)c1` (stereo not shown) [Compound 3e, 3-(2-(3-methoxyphenyl)-2-oxoethylidene)octahydro-4H-pyrido[1,2-a]pyrazin-4-one], the melting point was 133 to 135 °C. This compound also showed an IC50 at 24 h in data set [4] of over 300 µM. Besides, in data set [5], the fold induction at 0.1 µM came to 1.4 ± 1.21, the fold induction at 1 µM came out at 1.82 ± 1.15, the fold induction at 5 µM turned out to be 6.59 ± 0.77 and the fold induction at 50 µM was 9.36 ± 3.76. In data set [5], the fold induction at 100 µM amounted to 1.44 ± 1.75. Also, in data set [5] (10 μM), the fold induction at 10 µM was 9.16 ± 0.42.
For `O=C(C=C1NCC2CCCCN2C1=O)c1ccc(-c2ccccc2)cc1` (stereo not shown) [Compound 3f, 3-(2-([1,1′-biphenyl]-4-yl)-2-oxoethylidene)octahydro-4H-pyrido[1,2-a]pyrazin-4-one], the melting point was 197 to 199 °C. Moreover, the IC50 at 24 h in data set [4] turned out to be 184 µM. Besides, in data set [5], the fold induction at 0.1 µM stood at 2.96 ± 0.66, the fold induction at 1 µM stood at 2.21 ± 0.52, the fold induction at 5 µM was 3.6 ± 0.42 and the fold induction at 50 µM was 2.47 ± 0.03. Besides, the fold induction at 100 µM in data set [5] amounted to 2.69 ± 2.75. Moreover, the fold induction at 10 µM in data set [5] (10 μM) was 1.76 ± 0.1.
In the case of `O=C(C=C1NCC2CCCCN2C1=O)c1cccs1` (stereo not shown) [Compound 3h, 3-(2-oxo-2-(thiophen-2-yl)ethylidene)octahydro-4H-pyrido[1,2-a]pyrazin-4-one], the melting point fell in the range of 182 to 184 °C. Further, in data set [4], the IC50 at 24 h is over 300 µM. In data set [5], the fold induction at 0.1 µM stood at 2.06 ± 0.22, the fold induction at 1 µM was 2.12 ± 0.31, the fold induction at 5 µM stood at 8.3 ± 2.55 and the fold induction at 50 µM was found to be 28.9 ± 0.46. Further, the fold induction at 100 µM in data set [5] was 1.63 ± 0.25. The fold induction at 10 µM in data set [5] (10 μM) came to 10.5 ± 3.82.
On to `O=C(C=C1NCC2CCCCN2C1=O)c1nccs1` (stereo not shown) [Compound 3i, 3-(2-oxo-2-(thiazol-2-yl)ethylidene)octahydro-4H-pyrido[1,2-a]pyrazin-4-one], for which the melting point lay in the range of 151 to 153 °C. Besides, in data set [4], the 50% inhibitory concentration (IC50) at 24 h is over 300 µM. In addition, in data set [5], the fold induction at 0.1 µM was 1.52 ± 0.87, the fold induction at 1 µM was found to be 4.02 ± 3.05, the fold induction at 5 µM was 6.41 ± 1.48 and the fold induction at 50 µM turned out to be 13.5 ± 0.8. Moreover, the fold induction at 100 µM in data set [5] is 16.7 ± 1.39. Further, the fold induction at 10 µM in data set [5] (10 μM) was 9.28 ± 0.55.
In the case of `O=C(C=C1NCC2CCCCN2C1=O)c1cccc2ccccc12` (stereo not shown) [Compound 3j, 3-(2-(naphthalen-1-yl)-2-oxoethylidene)octahydro-4H-pyrido[1,2-a]pyrazin-4-one], the melting point fell in the range of 151 to 153 °C. Besides, the IC50 at 24 h in data set [4] was 264 µM. In addition, in data set [5], the fold induction at 0.1 µM came to 1.7 ± 0.19, the fold induction at 1 µM was 2.34 ± 0.53, the fold induction at 5 µM was found to be 2.54 ± 0.99 and the fold induction at 50 µM was determined as 3.85 ± 0.34. Besides, in data set [5], the fold induction at 100 µM was determined as 1.96 ± 0.71. Further, in data set [5] (10 μM), the fold induction at 10 µM came out at 3.52 ± 0.57.
